Test results published in patent EP2363494A9, “Improvement of transfection results of non-viral gene delivery systems by influencing the congenital immune system” (Biontex Laboratories Gmbh, priority 2007, dated 2009).
Read-outs that look alike come from different tables or passages of the source.

What was measured:
[1] = tested on: HeLa-Luc Zellen; experiment: Trypan blue vitality determination after siRNA transfection in presence of TLR7/8 agonists (Beispiel 9); assay type: cell-based; settings: Trypanblau after 48 h, Blindprobe 95,9
Method: Zunächst werden die ersten 5 Wells der ersten 3 Reihen einer 48 Well Platte mit jeweils 30 µl PBS gefüllt. Die Stocklösung der anti-Luciferase-siRNA und der non-specific-control-siRNA wird mit PBS auf eine Konzentration von 1 pmol/10 µl eingestellt. Anschließend werden jeweils 10 µl der Arbeitslösung der anti-Luciferase-siRNA in die ersten 3 Wells der der ersten drei Reihen der 48 Well Platte pipettiert. In die jeweils vierten Wells werden jeweils 10 µl der Arbeitslösung der non-specific-control-siRNA pipettiert. Das Metafectene Pro Reagenz wird mit PBS 1:300 verdünnt. Von dieser Verdünnung werden jeweils 20 µl in jedes Well mit siRNA gegeben. Anschließend werden die Lipoplexe für 20 Minuten bei Raumtemperatur inkubiert. Danach werden pro Well 250 µl Zellsuspension zugegeben. Analog wird eine zweite Platte bestückt.
In die ersten 2 Spalten der beiden 48 Well Platte werden 2 verschiedene Agonisten hinzugegeben. Dabei werden 3 verschiedene Arbeitskonzentrationen der Agonisten verwendet. Die Agonisten liegen lyophilisiert vor. Sie werden mit endotoxin-freiem Wasser zu Stocklösungen mit der Konzentration 100µg/ml gelöst. Die Stocklösungen werden jeweils 1:10 mit Wasser zu Arbeitslösungen verdünnt.
Von der ssRNA40/LyoVec-Arbeitslösung werden in B1 0,78 µl (=0,5 µg/ml Endkonzentration ssRNA40), in B2 15,5 µl (=5µg/ml) und in B3 31µl (=10µg/ml) pipettiert. Nach der Zugabe der Agonisten werden die beiden 48 Well Platten für 48 Stunden im CO2-Inkubator inkubiert.
Nach einer Inkubationszeit von 48 Stunden werden die Zellen einer Platte trypsiniert und mittels einer Neubauer-Zählkammer eine Vitalitätbestimmung mit Trypanblau für jedes Well durchgeführt.
Es wurden zwischen 40 und 70 Zellen ausgewertet.

[2] = tested on: HeLa-Luc Zellen; experiment: Luciferase assay after anti-Luciferase siRNA transfection in presence of TLR7/8 agonists (Beispiel 9); assay type: cell-based; settings: 48 h
Method: Anschließend werden 120 µl Luciferase-Lysispuffer hinzugegeben.
Alle Messungen wurden dreifach durchgeführt.
Von der Imiquimod-Arbeitslösung werden in A1 0,78 µl (=0,25 µg/ml Endkonzentration), in A2 15,5 µl (=5µg/ml) und in A3 31 µl (=10µg/ml) pipettiert. Von der ssRNA40/LyoVec-Arbeitslösung werden in B1 0,78 µl (=0,5 µg/ml Endkonzentration ssRNA40), in B2 15,5 µl (=5µg/ml) und in B3 31µl (=10µg/ml) pipettiert. Nach der Zugabe der Agonisten werden die beiden 48 Well Platten für 48 Stunden im CO2-Inkubator inkubiert.

[3] = tested on: HeLa Zellen; settings: Vorinkubationszeit 2h, inhibitor replaced and transfection repeated on day 3, Entwicklungszeit 10 min, 0µM well 0,63
Method: Die Effizienz der Transfektion wird mit dem β-Galaktosidase Assay Kit nach Vorgaben des Herstellers durchgeführt. Die Platten werden so lange entwickelt bis im Mikroplate-Reader eine Gelbfärbung mit einer Absorption von 1-2 gemessen wird und anschließend sofort gestoppt. Die Inkubationszeit wird anschließend notiert. Die Werte werden mit dem Mikroplate-Reader ausgelesen, und der Mittelwert gebildet.
1. Tag: Es werden HeLa Zellen in eine 48 Well Platte ausgesät.
1 mg Inhibitor wird in 100 µl DMSO gelöst (Stocklösung). Anschließend wird mit PBS 1:20 verdünnt (Arbeitslösung). Anschließend werden die Wells der 48 Well Platte mit folgenden Mengen Inhibitor versorgt:
Anschließend werden die Lipoplexe hergestellt. […] Jetzt werden beide Lösungen gemischt und 15 min inkubiert. Am Ende werden jeweils 50 µl der Lipoplexlösung in jedes Well gegeben.
Die Schritte Lipoplexherstellung und Transfektion werden ohne Inkubationszeit wiederholt.
Analog Beispiel 1 (mit halben Mengen)

[4] = tested on: HeLa-Luc Zellen; experiment: Luciferase assay after anti-Luciferase siRNA transfection in presence of kinase inhibitors (Beispiel 8); settings: 2 h before anti-Luciferase-siRNA/Metafectene Pro lipoplex

With `CC(C)Cn1cnc2c(N)nc3ccccc3c21` [Imiquimod, 1-(2-methylpropyl)-1H-imidazol[4,5-c]quinolin-4-amine] the Vitalität ([1]; Imiquimod 0,5µg/ml + anti-Luciferase-siRNA/Metafectene Pro) was 98,6%, the Vitalität ([1]; Imiquimod 5µg/ml + anti-Luciferase-siRNA/Metafectene Pro) was 88,7% and the Vitalität ([1]; Imiquimod 10µg/ml + anti-Luciferase-siRNA/Metafectene Pro) was 88,6%. For the same molecule, the “Luciferase Assay, Mittelwert von 3x3” value ([2]; Imiquimod 0,25 µg/ml Endkonzentration (0,5µg/ml in the 30th table) + anti-Luciferase-siRNA/Metafectene Pro, same plate row: siRNA alone 1604, non-specific control 3016, blank 2936) was 676 RLU/µl Zellextrakt/sec, the “Luciferase Assay, Mittelwert von 3x3” value ([2]; Imiquimod 5µg/ml + anti-Luciferase-siRNA/Metafectene Pro, same plate row: siRNA alone 1302, non-specific control 2753, blank 2673) was 349 RLU/µl Zellextrakt/sec and the “Luciferase Assay, Mittelwert von 3x3” value ([2]; Imiquimod 10µg/ml + anti-Luciferase-siRNA/Metafectene Pro, same plate row: siRNA alone 1481, non-specific control 2822, blank 2476) was 116 RLU/µl Zellextrakt/sec.
With `N#CC(=C(/N)Sc1ccccc1N)/C(C#N)=C(/N)Sc1ccccc1N` [U0126, 1,4-Diamino-2,3-dicyano-1,4-bis(o-amionophenylmercapto)butadiene] the “Absorption β-Galaktosidase Assay, Mittelwert von 3 Messungen” value (“Absorption β-Galaktosidase Assay” for short) ([3]; 5µM inhibitor) was 0,72, the “Absorption β-Galaktosidase Assay” value ([3]; 10µM inhibitor) was 0,92 and the “Absorption β-Galaktosidase Assay” value ([3]; 25µM inhibitor) was 0,79. The “Absorption β-Galaktosidase Assay” value ([3]; 50µM inhibitor) was 0,90, the “Absorption β-Galaktosidase Assay” value ([3]; 75µM inhibitor) was 0,97 and the “Luciferase Assay, Mittelwert von 3x3 Messungen” value ([4]; U0126 5µM, one transfection, 0µM 1157, non-specific-control-siRNA 1829, untransfected 1674) was 375 RLU/µl Zellextrakt/sec. For the same molecule, the “Luciferase Assay, Mittelwert von 3x3 Messungen” value ([4]; U0126 5µM, transfection repeated on day 3, 0µM 1001, non-specific-control-siRNA 2290, untransfected 2249) was 641 RLU/µl Zellextrakt/sec, the “Luciferase Assay, Mittelwert von 3x3 Messungen” value ([4]; U0126 10µM, one transfection, 0µM 1157, non-specific-control-siRNA 1829, untransfected 1674) was 567 RLU/µl Zellextrakt/sec and the “Luciferase Assay, Mittelwert von 3x3 Messungen” value ([4]; U0126 10µM, transfection repeated on day 3, 0µM 1001, non-specific-control-siRNA 2290, untransfected 2249) was 162 RLU/µl Zellextrakt/sec. The “Luciferase Assay, Mittelwert von 3x3 Messungen” value ([4]; U0126 25µM, one transfection, 0µM 1157, non-specific-control-siRNA 1829, untransfected 1674) was 268 RLU/µl Zellextrakt/sec, the “Luciferase Assay, Mittelwert von 3x3 Messungen” value ([4]; U0126 25µM, transfection repeated on day 3, 0µM 1001, non-specific-control-siRNA 2290, untransfected 2249) was 179 RLU/µl Zellextrakt/sec and the “Luciferase Assay, Mittelwert von 3x3 Messungen” value ([4]; U0126 50µM, one transfection, 0µM 1157, non-specific-control-siRNA 1829, untransfected 1674) was 193 RLU/µl Zellextrakt/sec. For the same molecule, the “Luciferase Assay, Mittelwert von 3x3 Messungen” value ([4]; U0126 50µM, transfection repeated on day 3, 0µM 1001, non-specific-control-siRNA 2290, untransfected 2249) was 171 RLU/µl Zellextrakt/sec, the “Luciferase Assay, Mittelwert von 3x3 Messungen” value ([4]; U0126 75µM, one transfection, 0µM 1157, non-specific-control-siRNA 1829, untransfected 1674) was 260 RLU/µl Zellextrakt/sec and the “Luciferase Assay, Mittelwert von 3x3 Messungen” value ([4]; U0126 75µM, transfection repeated on day 3, 0µM 1001, non-specific-control-siRNA 2290, untransfected 2249) was 103 RLU/µl Zellextrakt/sec.
In the case of `C[S+]([O-])c1ccc(-c2nc(-c3ccncc3)c(-c3ccc(F)cc3)[nH]2)cc1` (stereo not shown) [SB203580], the “Luciferase Assay, Mittelwert von 3x3 Messungen” value ([4]; SB203580 5µM, one transfection, 0µM 1027, non-specific-control-siRNA 2029, untransfected 2504) was 693 RLU/µl Zellextrakt/sec, the “Luciferase Assay, Mittelwert von 3x3 Messungen” value ([4]; SB203580 5µM, transfection repeated on day 3, 0µM 976, non-specific-control-siRNA 2135, untransfected 2531) was 696 RLU/µl Zellextrakt/sec and the “Luciferase Assay, Mittelwert von 3x3 Messungen” value ([4]; SB203580 10µM, one transfection, 0µM 1027, non-specific-control-siRNA 2029, untransfected 2504) was 747 RLU/µl Zellextrakt/sec. The “Luciferase Assay, Mittelwert von 3x3 Messungen” value ([4]; SB203580 10µM, transfection repeated on day 3, 0µM 976, non-specific-control-siRNA 2135, untransfected 2531) was 656 RLU/µl Zellextrakt/sec, the “Luciferase Assay, Mittelwert von 3x3 Messungen” value ([4]; SB203580 20µM, one transfection, 0µM 1027, non-specific-control-siRNA 2029, untransfected 2504) was 630 RLU/µl Zellextrakt/sec and the “Luciferase Assay, Mittelwert von 3x3 Messungen” value ([4]; SB203580 20µM, transfection repeated on day 3, 0µM 976, non-specific-control-siRNA 2135, untransfected 2531) was 617 RLU/µl Zellextrakt/sec. For the same molecule, the “Luciferase Assay, Mittelwert von 3x3 Messungen” value ([4]; SB203580 30µM, one transfection, 0µM 1027, non-specific-control-siRNA 2029, untransfected 2504) was 671 RLU/µl Zellextrakt/sec, the “Luciferase Assay, Mittelwert von 3x3 Messungen” value ([4]; SB203580 30µM, transfection repeated on day 3, 0µM 976, non-specific-control-siRNA 2135, untransfected 2531) was 587 RLU/µl Zellextrakt/sec and the “Luciferase Assay, Mittelwert von 3x3 Messungen” value ([4]; SB203580 40µM, one transfection, 0µM 1027, non-specific-control-siRNA 2029, untransfected 2504) was 669 RLU/µl Zellextrakt/sec. For the same molecule, the “Luciferase Assay, Mittelwert von 3x3 Messungen” value ([4]; SB203580 40µM, transfection repeated on day 3, 0µM 976, non-specific-control-siRNA 2135, untransfected 2531) was 610 RLU/µl Zellextrakt/sec.
